Laboratory results reported in PMC11969438 (Inorganic Chemistry Frontiers, 2025).

Experiments:
[1] = Body weight of treated animals; type: in vivo, CT-26-bearing BALB/c mice; conditions: peritumoral application
Description: Tumor size was determined daily via manual caliper measurement. […] Animals were euthanized via cervical dislocation.

[2] = target: T1, albumin (Bos taurus, UniProt P02769); experiment: Albumin binding in fetal calf serum, SEC-ICP-MS; type: in vitro ADME; conditions: 50 μM in FCS, 37 °C, up to 24 h
T1 construct: Serum proteins have a retention span of ∼2–4 min as part of the high-molecular weight fraction with albumin at ∼4 min; tissue Sigma-Aldrich; host or cells: fetal calf serum (whole serum, buffered with 150 mM phosphate buffer pH 7.4)
T1 sequence (P02769 25-607): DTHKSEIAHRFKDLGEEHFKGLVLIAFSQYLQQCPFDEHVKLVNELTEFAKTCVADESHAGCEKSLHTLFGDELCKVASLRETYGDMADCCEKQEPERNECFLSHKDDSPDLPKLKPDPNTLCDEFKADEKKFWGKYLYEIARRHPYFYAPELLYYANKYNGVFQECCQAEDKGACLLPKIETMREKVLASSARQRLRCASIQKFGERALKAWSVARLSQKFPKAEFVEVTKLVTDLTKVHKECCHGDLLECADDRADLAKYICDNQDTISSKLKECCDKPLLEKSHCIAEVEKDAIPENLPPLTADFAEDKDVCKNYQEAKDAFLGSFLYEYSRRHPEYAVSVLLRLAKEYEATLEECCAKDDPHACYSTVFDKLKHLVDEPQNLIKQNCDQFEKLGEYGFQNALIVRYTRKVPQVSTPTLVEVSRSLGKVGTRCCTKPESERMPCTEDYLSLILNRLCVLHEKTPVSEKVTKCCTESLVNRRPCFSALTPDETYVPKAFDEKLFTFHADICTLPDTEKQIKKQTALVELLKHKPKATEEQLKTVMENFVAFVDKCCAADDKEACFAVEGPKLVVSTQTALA
Description: FCS was purchased from Sigma-Aldrich and buffered with 150 mM PB pH 7.4 to guarantee a stable pH. The platinum(IV) complexes were dissolved in 150 mM PB (pH 7.4) at a concentration of 5 mM and diluted 1 : 100 in the buffered serum to obtain a final concentration of 50 μM. The samples were then incubated in an autosampler at 37 °C and analyzed for 24 h. Between each sample, a pure water blank was measured. For SEC-ICP-MS measurements an Agilent 1260 Infinity system coupled to an Agilent 7800 ICP-MS equipped with a dynamic reaction cell was used. Oxygen (purity 5.5, Messer Austria GmbH, Gumpoldskirchen, Austria) was used as a reaction gas.

## COCCOCCOCCOCCNC(=O)[O][Pt-2]12([O]C(=O)CCC(=O)c3cc4cc(OC)c(OC)cc4s3)([NH2+][C@@H]3CCCC[C@H]3[NH2+]1)[O]C(=O)C(=O)[O]2 [Ox-MSA-PEG-Ca, (OC-6-34)-[(1R,2R)-1,2-cyclohexanediamino]-oxalato-[4-(5,6-dimethoxybenzo[b]thiophen-2-yl)-4-oxobutylcarboxylato]-[3,6,9,12-tetraoxatridecan-1-amino]platinum(IV)]
[1]
  effect on body weights: without negative effects on body weights
[2]
  ability to conjugate to albumin: lacked the ability to conjugate to albumin
